Reference: patent publication US11331327B2, “Antibacterial use of halogenated salicylanilides” (UNION therapeutics A/S, priority 2014, dated 2022)
Converted amounts (≈) assume the structure as drawn.

Tested on: S. aureus clinical isolates and S. aureus ATCC 29213
Assay: MIC assay according to CLSI criteria, Example 2, S. aureus strains
Assay type: cell-based, Staphylococcus aureus
Conditions: Staphylococcus aureus
Outline: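 Wells received roughly 5×10^5 S. aureus cells taken in exponential growth, in cation-adjusted MH broth. Plates held aerobically at 37° C for 18 hours.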

## C=C[C@]1(C)C[C@@H](OC(=O)CS[C@@H]2C[C@H]3CC[C@@H](C2)N3C)[C@]2(C)[C@H](C)CC[C@]3(CCC(=O)[C@H]32)[C@@H](C)[C@@H]1O [Retapamulin]
ATCC29213, strain 9-1862936
  MIC: 0.03 µg/mL (≈ 0.0579 µM)
ATCC29213, strain 9-2625962
  MIC: 0.03 µg/mL (≈ 0.0579 µM)
ATCC29213, strain 9-2642158
  MIC: 0.06 µg/mL (≈ 0.116 µM)
ATCC29213, strain 9-2955245
  MIC: 0.06 µg/mL (≈ 0.116 µM)
ATCC29213, strain 9-26422166
  MIC: 0.03 µg/mL (≈ 0.0579 µM)
ATCC29213, strain 000040C
  MIC: 0.03 µg/mL (≈ 0.0579 µM)
ATCC29213, strain 000041C
  MIC: 0.03 µg/mL (≈ 0.0579 µM)
ATCC29213, strain 000274T
  MIC: 0.06 µg/mL (≈ 0.116 µM)
ATCC29213, strain 114660U
  MIC: 0.06 µg/mL (≈ 0.116 µM)
ATCC29213, strain 115015T
  MIC: 0.06 µg/mL (≈ 0.116 µM)
ATCC29213, strain 115242C
  MIC: 0.03 µg/mL (≈ 0.0579 µM)
ATCC29213, strain 115263C
  MIC: 0.03 µg/mL (≈ 0.0579 µM)
ATCC29213, strain 115268C
  MIC: 0.03 µg/mL (≈ 0.0579 µM)
ATCC29213, strain 115273C
  MIC: 0.03 µg/mL (≈ 0.0579 µM)
ATCC29213, strain 115295C
  MIC: 0.03 µg/mL (≈ 0.0579 µM)
ATCC29213, strain 115303C
  MIC: 0.03 µg/mL (≈ 0.0579 µM)
ATCC29213, strain 115370U
  MIC: 0.06 µg/mL (≈ 0.116 µM)
ATCC29213, strain 115427C
  MIC: 0.03 µg/mL (≈ 0.0579 µM)
ATCC29213, strain 115445C
  MIC: 0.03 µg/mL (≈ 0.0579 µM)
ATCC29213, strain 115561C
  MIC: 0.03 µg/mL (≈ 0.0579 µM)
ATCC29213, strain 115584D
  MIC: 0.06 µg/mL (≈ 0.116 µM)
ATCC29213, strain 115628T
  MIC: 0.03 µg/mL (≈ 0.0579 µM)
ATCC29213, strain 115690C
  MIC: 0.25 µg/mL (≈ 0.483 µM)
ATCC29213, strain 115691T
  MIC: 0.03 µg/mL (≈ 0.0579 µM)
ATCC29213, strain 115740E
  MIC: 0.06 µg/mL (≈ 0.116 µM)
ATCC29213, strain 115810E
  MIC: 0.06 µg/mL (≈ 0.116 µM)
ATCC29213, strain 115903T
  MIC: 0.03 µg/mL (≈ 0.0579 µM)
ATCC29213, strain 116122T
  MIC: 0.03 µg/mL (≈ 0.0579 µM)
ATCC29213, strain ATCC 29213
  MIC: 0.03 µg/mL (≈ 0.0579 µM)
ATCC29213, strain E5-1029252
  MIC: 0.03 µg/mL (≈ 0.0579 µM)
ATCC29213, strain E5-1029558
  MIC: 0.03 µg/mL (≈ 0.0579 µM)
ATCC29213, strain E5-1030440
  MIC: 0.06 µg/mL (≈ 0.116 µM)
ATCC29213, strain E5-1030469
  MIC: 0.03 µg/mL (≈ 0.0579 µM)
ATCC29213, strain E5-1030472
  MIC: 0.06 µg/mL (≈ 0.116 µM)
ATCC29213, strain E5-1030482
  MIC: 0.02 µg/mL (≈ 0.0386 µM)
ATCC29213, strain E5-1033076 (first line, r202)
  MIC: 0.03 µg/mL (≈ 0.0579 µM)
ATCC29213, strain E5-1033076 (second line, r203)
  MIC: 0.03 µg/mL (≈ 0.0579 µM)
ATCC29213, strain E5-1033088
  MIC: 0.03 µg/mL (≈ 0.0579 µM)
ATCC29213, strain E5-1033091
  MIC: 0.02 µg/mL (≈ 0.0386 µM)
ATCC29213, strain E5-1035277
  MIC: 0.03 µg/mL (≈ 0.0579 µM)
ATCC29213, strain E5-1035284
  MIC: 0.03 µg/mL (≈ 0.0579 µM)
ATCC29213, strain E5-1035775
  MIC: 0.06 µg/mL (≈ 0.116 µM)
ATCC29213, strain E5-1035779
  MIC: 0.03 µg/mL (≈ 0.0579 µM)
ATCC29213, strain E5-1037958
  MIC: 0.06 µg/mL (≈ 0.116 µM)
ATCC29213, strain E5-1037971
  MIC: 0.03 µg/mL (≈ 0.0579 µM)
ATCC29213, strain E5-1038279
  MIC: 0.03 µg/mL (≈ 0.0579 µM)
ATCC29213, strain E5-1038286
  MIC: 0.06 µg/mL (≈ 0.116 µM)
ATCC29213, strain E5-1038294
  MIC: 0.03 µg/mL (≈ 0.0579 µM)
ATCC29213, strain E5-1039684
  MIC: 0.06 µg/mL (≈ 0.116 µM)
ATCC29213, strain E5-1039697
  MIC: 0.06 µg/mL (≈ 0.116 µM)
ATCC29213, strain E5-1041977
  MIC: 0.03 µg/mL (≈ 0.0579 µM)
ATCC29213, strain E5-1041979
  MIC: 0.03 µg/mL (≈ 0.0579 µM)
ATCC29213, strain E5-1041980
  MIC: 0.03 µg/mL (≈ 0.0579 µM)
ATCC29213, strain E5-1041987
  MIC: 0.03 µg/mL (≈ 0.0579 µM)
ATCC29213, strain E5-1043184
  MIC: 0.03 µg/mL (≈ 0.0579 µM)
ATCC29213, strain E5-1043668
  MIC: 0.06 µg/mL (≈ 0.116 µM)
ATCC29213, strain E5-1045179
  MIC: 0.06 µg/mL (≈ 0.116 µM)
ATCC29213, strain E5-1046019
  MIC: 0.03 µg/mL (≈ 0.0579 µM)
ATCC29213, strain E5-1046020
  MIC: 0.06 µg/mL (≈ 0.116 µM)
ATCC29213, strain E5-1046039
  MIC: 0.06 µg/mL (≈ 0.116 µM)
ATCC29213, strain E5-1046070
  MIC: 0.03 µg/mL (≈ 0.0579 µM)
ATCC29213, strain E5-1046074
  MIC: 0.06 µg/mL (≈ 0.116 µM)
ATCC29213, strain E5-1046085
  MIC: 0.06 µg/mL (≈ 0.116 µM)
ATCC29213, strain E5-1046096
  MIC: 0.06 µg/mL (≈ 0.116 µM)
ATCC29213, strain E5-1046296
  MIC: 0.03 µg/mL (≈ 0.0579 µM)
ATCC29213, strain E5-1046297
  MIC: 0.06 µg/mL (≈ 0.116 µM)
ATCC29213, strain E5-1046298
  MIC: 0.03 µg/mL (≈ 0.0579 µM)
ATCC29213, strain E5-1046723
  MIC: 0.06 µg/mL (≈ 0.116 µM)
ATCC29213, strain E5-1047585
  MIC: 0.03 µg/mL (≈ 0.0579 µM)
ATCC29213, strain E5-1047606
  MIC: 0.03 µg/mL (≈ 0.0579 µM)
ATCC29213, strain E5-1047924
  MIC: 0.03 µg/mL (≈ 0.0579 µM)
ATCC29213, strain E5-1048204
  MIC: 0.03 µg/mL (≈ 0.0579 µM)
ATCC29213, strain E5-1048428
  MIC: 0.06 µg/mL (≈ 0.116 µM)
ATCC29213, strain E5-1048654
  MIC: 0.06 µg/mL (≈ 0.116 µM)
ATCC29213, strain E5-1048670
  MIC: 0.06 µg/mL (≈ 0.116 µM)
ATCC29213, strain EEFIC 01
  MIC: 0.03 µg/mL (≈ 0.0579 µM)
ATCC29213, strain EEFIC 02
  MIC: 0.03 µg/mL (≈ 0.0579 µM)
ATCC29213, strain K000772
  MIC: 0.06 µg/mL (≈ 0.116 µM)
ATCC29213, strain K000796
  MIC: 0.03 µg/mL (≈ 0.0579 µM)
ATCC29213, strain K000863
  MIC: 0.03 µg/mL (≈ 0.0579 µM)
ATCC29213, strain K000864
  MIC: 0.03 µg/mL (≈ 0.0579 µM)
ATCC29213, strain K000866
  MIC: 0.03 µg/mL (≈ 0.0579 µM)
ATCC29213, strain K115498
  MIC: 0.03 µg/mL (≈ 0.0579 µM)
ATCC29213, strain K115688
  MIC: 0.03 µg/mL (≈ 0.0579 µM)
ATCC29213, strain K115689
  MIC: 0.03 µg/mL (≈ 0.0579 µM)
ATCC29213, strain R000019
  MIC: 0.06 µg/mL (≈ 0.116 µM)
ATCC29213, strain R000020
  MIC: 0.03 µg/mL (≈ 0.0579 µM)
ATCC29213, strain R000024
  MIC: 0.06 µg/mL (≈ 0.116 µM)
ATCC29213, strain U115579
  MIC: 0.06 µg/mL (≈ 0.116 µM)
ATCC 29213 / MRSA, strain MRSA 01
  MIC: 0.06 µg/mL (≈ 0.116 µM)
ATCC 29213 / MRSA, strain MRSA 02
  MIC: 0.06 µg/mL (≈ 0.116 µM)
ATCC 29213 / MRSA, strain MRSA 03
  MIC: 0.03 µg/mL (≈ 0.0579 µM)
ATCC 29213 / MRSA, strain MRSA 04
  MIC: 0.06 µg/mL (≈ 0.116 µM)
ATCC 29213 / MRSA, strain MRSA 05
  MIC: 0.03 µg/mL (≈ 0.0579 µM)
ATCC 29213 / MRSA, strain MRSA 06
  MIC: 0.03 µg/mL (≈ 0.0579 µM)
ATCC 29213 / MRSA, strain MRSA 07
  MIC: 0.06 µg/mL (≈ 0.116 µM)
ATCC 29213 / MRSA, strain MRSA 08
  MIC: 0.03 µg/mL (≈ 0.0579 µM)
ATCC 29213 / MRSA, strain MRSA 09
  MIC: 0.06 µg/mL (≈ 0.116 µM)
ATCC 29213 / MRSA, strain MRSA 10
  MIC: 0.06 µg/mL (≈ 0.116 µM)
ATCC 29213 / MRSA, strain MRSA 11
  MIC: 0.06 µg/mL (≈ 0.116 µM)
ATCC 29213 / MRSA, strain MRSA 12
  MIC: 0.03 µg/mL (≈ 0.0579 µM)
ATCC 29213 / MRSA, strain MRSA 13
  MIC: 0.06 µg/mL (≈ 0.116 µM)
ATCC 29213 / MRSA, strain MRSA 14
  MIC: 0.03 µg/mL (≈ 0.0579 µM)
